# Laboratory results published in patent US9012608B2 (priority 2007, dated 2015).
# Assays:
# [1] = mouse, in vivo
# [2] = system: B. anthracis Sterne strain spores; set-up: species or system Bacillus anthracis; settings: in vivo
compound,measurement,setting,value
C[C@H]1c2cccc(O)c2C(=O)C2=C(O)[C@]3(O)C(=O)C(C(N)=O)=C(O)[C@@H](N(C)C)[C@@H]3[C@@H](O)[C@@H]21 [doxycycline],tolerance,[1],not well tolerated
CN(C)[C@@H]1C(O)=C(C(N)=O)C(=O)[C@@]2(O)C(O)=C3C(=O)c4c(O)cccc4[C@@](C)(O)[C@H]3C[C@@H]12 [tetracycline],survival,[2],60%
O=C(O)c1cn(C2CC2)c2cc(N3CCNCC3)c(F)cc2c1=O [ciprofloxacin],tolerance to selected dose,[1],favorably tested
